Results as given in patent publication US7396837B2, “Antitumoral analogs of lamellarins” (Pharma Mar, S.A.U., priority 2002, dated 2008).
Where two headings read alike, the source gives them in different places.

What was measured:
Assay type in all cases: cell-based
K-562 = test: SRB colorimetric cell growth inhibition assay, K-562; conditions: Homo sapiens, K562, K-562; for GI50: GI=growth inhibition, read-out: GI50 K-562; for CC50: read-out: LC50 K-562; for IC (TGI): read-out: TGI K-562
Outline: (§1)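 Continuous-exposure format, human tumour lines. SRB colour reaction quantifies growth/viability. Triplicate wells → mean ± SD → GI, TGI, LC.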

A-549 = test: SRB colorimetric cell growth inhibition assay, A-549; conditions: Homo sapiens, A549, A-549; for GI50: GI=growth inhibition, read-out: GI50 A-549; for CC50: read-out: LC50 A-549; for IC (TGI): read-out: TGI A-549
Outline: as §1

SK-MEL-28 = test: SRB colorimetric cell growth inhibition assay, SK-MEL-28; conditions: Homo sapiens, SK-MEL-28, MEL-28; for GI50: GI=growth inhibition, read-out: GI50 MEL-28; for CC50: read-out: LC50 MEL-28; for IC (TGI): read-out: TGI MEL-28
Outline: as §1

HT-29 = test: SRB colorimetric cell growth inhibition assay, HT-29; conditions: Homo sapiens, HT-29, HT-29; for GI50: GI=growth inhibition, read-out: GI50 HT-29; for CC50: read-out: LC50 HT-29; for IC (TGI): read-out: TGI HT-29
Outline: as §1

LoVo = test: SRB colorimetric cell growth inhibition assay, LoVo; conditions: Homo sapiens, LoVo; for GI50: GI=growth inhibition, read-out: GI50 LOVO; for CC50: read-out: LC50 LOVO; for IC (TGI): read-out: TGI LOVO
Outline: as §1

LoVo-Dox = test: SRB colorimetric cell growth inhibition assay, LoVo-Dox (MDR); conditions: Homo sapiens, LOVO-DOX; for GI50: GI=growth inhibition, read-out: GI50 LOVO-DOX; for CC50: read-out: LC50 LOVO-DOX; for IC (TGI): read-out: TGI LOVO-DOX
Outline: as §1

DU-145 = test: SRB colorimetric cell growth inhibition assay, DU-145; conditions: Homo sapiens, DU-145, DU-145; for GI50: GI=growth inhibition, read-out: GI50 DU-145; for CC50: read-out: LC50 DU-145; for IC (TGI): read-out: TGI DU-145
Outline: as §1

LNCaP = test: SRB colorimetric cell growth inhibition assay, LNCaP; conditions: Homo sapiens, LNCaP, LN-caP; for GI50: GI=growth inhibition, read-out: GI50 LN-caP; for CC50: read-out: LC50 LN-caP; for IC (TGI): read-out: TGI LN-caP
Outline: as §1

SK-BR-3 = test: SRB colorimetric cell growth inhibition assay, SK-BR-3; conditions: Homo sapiens, SK-BR-3, SK-BR-3; for GI50: GI=growth inhibition, read-out: GI50 SK-BR-3; for CC50: read-out: LC50 SK-BR-3; for IC (TGI): read-out: TGI SK-BR-3
Outline: as §1

IGROV = test: SRB colorimetric cell growth inhibition assay, IGROV; conditions: Homo sapiens, IGROV; for GI50: GI=growth inhibition, read-out: GI50 IGROV; for CC50: read-out: LC50 IGROV; for IC (TGI): read-out: TGI IGROV
Outline: as §1

IGROV-ET = test: SRB colorimetric cell growth inhibition assay, IGROV-ET (ET-743 resistant); conditions: Homo sapiens, IGROV-ET; for GI50: GI=growth inhibition, read-out: GI50 IGROV-ET; for CC50: read-out: LC50 IGROV-ET; for IC (TGI): read-out: TGI IGROV-ET
Outline: as §1

HeLa = test: SRB colorimetric cell growth inhibition assay, HeLa; conditions: Homo sapiens, HeLa; for GI50: GI=growth inhibition, read-out: GI50 HELA; for CC50: read-out: LC50 HELA; for IC (TGI): read-out: TGI HELA
Outline: as §1

HeLa-APL = test: SRB colorimetric cell growth inhibition assay, HeLa-APL (aplidine resistant); conditions: Homo sapiens, HELA-APL; for GI50: GI=growth inhibition, read-out: GI50 HELA-APL; for CC50: read-out: LC50 HELA-APL; for IC (TGI): read-out: TGI HELA-APL
Outline: as §1

PANC-1 = test: SRB colorimetric cell growth inhibition assay, PANC-1; conditions: Homo sapiens, PANC-1, PANC-1; for GI50: GI=growth inhibition, read-out: GI50 PANC-1; for CC50: read-out: LC50 PANC-1; for IC (TGI): read-out: TGI PANC-1
Outline: as §1

[1] = cell killing (cytotoxic effect)
[2] = total growth inhibition (cytostatic effect)
[3] = LC=cell killing (cytotoxic effect)
[4] = TGI=total growth inhibition (cytostatic effect)

Question: Which results are given for COc1cc2c(cc1O)oc(=O)c1c2c(-c2cccc([N+](=O)[O-])c2)c2c3cc(OC)c(O)cc3ccn21 [Compound 221]?
Answer: GI50 (K-562): 0.0883 µM; CC50 (K-562; [1]): 20.1 µM; IC (TGI) (K-562; [2]): 20.1 µM; GI50 (A-549): 0.0802 µM; CC50 (A-549; [1]): 20.1 µM; IC (TGI) (A-549; [2]): 20.1 µM; GI50 (SK-MEL-28): 0.106 µM; CC50 (SK-MEL-28; [1]): 20.1 µM; IC (TGI) (SK-MEL-28; [2]): 20.1 µM; GI50 (HT-29): 20.1 µM; CC50 (HT-29; [1]): 20.1 µM; IC (TGI) (HT-29; [2]): 20.1 µM; GI50 (LoVo): 2.41 µM; CC50 (LoVo; [1]): 15.9 µM; IC (TGI) (LoVo; [2]): 6.2 µM; GI50 (LoVo-Dox): 2.83 µM; CC50 (LoVo-Dox; [1]): 20.1 µM; IC (TGI) (LoVo-Dox; [2]): 14.2 µM; GI50 (DU-145): 0.0431 µM; CC50 (DU-145; [1]): 20.1 µM; IC (TGI) (DU-145; [2]): 0.257 µM; GI50 (LNCaP): 0.0722 µM; CC50 (LNCaP; [1]): 20.1 µM; IC (TGI) (LNCaP; [2]): 5.02 µM; GI50 (SK-BR-3): 1.53 µM; CC50 (SK-BR-3; [1]): 20.1 µM; IC (TGI) (SK-BR-3; [2]): 12.9 µM; GI50 (IGROV): 0.0819 µM; CC50 (IGROV; [1]): 20.1 µM; IC (TGI) (IGROV; [2]): 20.1 µM; GI50 (IGROV-ET): 0.0648 µM; CC50 (IGROV-ET; [1]): 20.1 µM; IC (TGI) (IGROV-ET; [2]): 20.1 µM; GI50 (HeLa): 0.0564 µM; CC50 (HeLa; [1]): 20.1 µM; IC (TGI) (HeLa; [2]): 20.1 µM; GI50 (HeLa-APL): 0.0796 µM; CC50 (HeLa-APL; [1]): 20.1 µM; IC (TGI) (HeLa-APL; [2]): 20.1 µM; GI50 (PANC-1): 0.0786 µM; CC50 (PANC-1; [1]): 20.1 µM; IC (TGI) (PANC-1; [2]): 20.1 µM

Question: What does the source list for COc1cc(-c2c3c4cc(OC)c(O)cc4oc(=O)c3n3ccc4c([N+](=O)[O-])cccc4c23)ccc1O [Compound 53]?
Answer: GI50 (K-562): 10.3 µM; CC50 (K-562; [3]): 20.1 µM; IC (TGI) (K-562; [4]): 20.1 µM; GI50 (A-549): 5.66 µM; CC50 (A-549; [3]): 20.1 µM; IC (TGI) (A-549; [4]): 20.1 µM; GI50 (SK-MEL-28): 4.03 µM; CC50 (SK-MEL-28; [3]): 20.1 µM; IC (TGI) (SK-MEL-28; [4]): 15.5 µM; GI50 (HT-29): 2.17 µM; CC50 (HT-29; [3]): 20.1 µM; IC (TGI) (HT-29; [4]): 20.1 µM; GI50 (LoVo): 11.1 µM; CC50 (LoVo; [3]): 20.1 µM; IC (TGI) (LoVo; [4]): 20.1 µM; GI50 (LoVo-Dox): 20.1 µM; CC50 (LoVo-Dox; [3]): 20.1 µM; IC (TGI) (LoVo-Dox; [4]): 20.1 µM; GI50 (DU-145): 4.53 µM; CC50 (DU-145; [3]): 20.1 µM; IC (TGI) (DU-145; [4]): 12.3 µM; GI50 (LNCaP): 4.01 µM; CC50 (LNCaP; [3]): 20.1 µM; IC (TGI) (LNCaP; [4]): 9.75 µM; GI50 (SK-BR-3): 1.99 µM; CC50 (SK-BR-3; [3]): 20.1 µM; IC (TGI) (SK-BR-3; [4]): 9.49 µM; GI50 (IGROV): 1.38 µM; CC50 (IGROV; [3]): 20.1 µM; IC (TGI) (IGROV; [4]): 20.1 µM; GI50 (IGROV-ET): 20.1 µM; CC50 (IGROV-ET; [3]): 20.1 µM; IC (TGI) (IGROV-ET; [4]): 20.1 µM; GI50 (HeLa): 0.59 µM; CC50 (HeLa; [3]): 20.1 µM; IC (TGI) (HeLa; [4]): 12.3 µM; GI50 (HeLa-APL): 20.1 µM; CC50 (HeLa-APL; [3]): 20.1 µM; IC (TGI) (HeLa-APL; [4]): 20.1 µM; GI50 (PANC-1): 1.03 µM; CC50 (PANC-1; [3]): 20.1 µM; IC (TGI) (PANC-1; [4]): 9.67 µM
